Legend:
[1] = target: T1, adenylate kinase (AdK) (Escherichia coli, UniProt P69441); assay: steady-state enzyme kinetics; format: biochemical; conditions: cited from earlier work
[2] = target: T1, adenylate kinase (AdK); assay: isothermal titration calorimetry; format: binding

T1 sequence (P69441 whole entry): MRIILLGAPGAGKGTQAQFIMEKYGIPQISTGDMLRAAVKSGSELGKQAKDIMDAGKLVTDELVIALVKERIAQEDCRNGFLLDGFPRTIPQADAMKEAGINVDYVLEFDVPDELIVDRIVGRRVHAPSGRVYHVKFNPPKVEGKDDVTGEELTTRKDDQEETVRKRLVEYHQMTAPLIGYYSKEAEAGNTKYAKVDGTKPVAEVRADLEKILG

Row | Kd [2] [µM] | SMILES | Km [1] [µM]
1 |  | Nc1ncnc2c1ncn2[C@@H]1O[C@H](COP(=O)(O)OP(=O)(O)OP(=O)(O)O)[C@@H](O)[C@H]1O [ATP] | 71
2 | 9 | Nc1ncnc2c1ncn2[C@@H]1O[C@H](COP(=O)(O)OP(=O)(O)O)[C@@H](O)[C@H]1O [ADP] | 

— article PMC8297476 (Biochemistry, 2021)
